Activity calls are given as the source filed them. The rule behind the calls is not given here.
Assays:
[1] = biological target: T1, Melanocortin receptor 4 (Homo sapiens, UniProt P32245)
Description: Agonist activity at human MC4 receptor expressed in HEK293 cells assessed as stimulation of cAMP production

[2] = biological target: T2, Melanocyte-stimulating hormone receptor (Homo sapiens, UniProt Q01726); assay: Inhibition of human MC1 receptor expressed in HEK293 cells at 10 uM; format: cell-based
Target sequence in this assay (Q01726 whole entry, looked up): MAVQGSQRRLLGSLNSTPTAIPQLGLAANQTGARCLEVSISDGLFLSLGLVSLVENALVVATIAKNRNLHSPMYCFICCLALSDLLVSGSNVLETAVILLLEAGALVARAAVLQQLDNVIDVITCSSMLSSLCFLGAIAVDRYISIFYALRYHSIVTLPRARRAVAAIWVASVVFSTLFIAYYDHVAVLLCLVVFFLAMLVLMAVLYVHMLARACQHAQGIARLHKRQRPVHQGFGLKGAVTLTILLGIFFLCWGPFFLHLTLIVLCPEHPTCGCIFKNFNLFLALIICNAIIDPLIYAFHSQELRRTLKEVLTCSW

[3] = biological target: T3, Melanocortin receptor 3 (Homo sapiens, UniProt P41968); assay: Inhibition of human MC3 receptor expressed in HEK293 cells at 10 uM; format: cell-based
T3 sequence (P41968 whole entry): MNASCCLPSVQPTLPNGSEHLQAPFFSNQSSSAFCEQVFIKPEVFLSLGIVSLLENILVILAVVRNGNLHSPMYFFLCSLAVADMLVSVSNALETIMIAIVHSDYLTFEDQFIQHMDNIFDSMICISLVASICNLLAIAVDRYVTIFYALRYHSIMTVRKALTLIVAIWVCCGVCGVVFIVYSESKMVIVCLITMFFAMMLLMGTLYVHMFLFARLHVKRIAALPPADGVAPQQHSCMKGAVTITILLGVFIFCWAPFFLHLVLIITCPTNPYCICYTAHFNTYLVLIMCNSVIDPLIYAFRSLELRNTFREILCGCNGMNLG

[4] = biological target: T1, Melanocortin receptor 4; assay: biochemical
Description: (§1) Displacement of [125]NDP-MSH from human MC4 receptor expressed in HEK293 cells

[5] = biological target: T1, Melanocortin receptor 4; details: HEK293
Description: as §1

[6] = biological target: T1, Melanocortin receptor 4; assay: Antagonist activity at human MC4 receptor expressed in HEK293 cells assessed as inhibition of alpha-MSH-stimulated cAMP production; format: functional, cell-based; details: read-out: pA2 (converted)
[7] = biological target: T2, Melanocyte-stimulating hormone receptor; format: cell-based, HEK293
Target sequence in this assay (Q01726 whole entry): as the sequence (Q01726 whole entry, looked up) above

[8] = biological target: T3, Melanocortin receptor 3; format: cell-based, HEK293
[9] = biological target: Melanocortin receptor 5 (Homo sapiens, UniProt P33032); format: cell-based, HEK293
Melanocortin receptor 5, sequence (P33032 whole entry): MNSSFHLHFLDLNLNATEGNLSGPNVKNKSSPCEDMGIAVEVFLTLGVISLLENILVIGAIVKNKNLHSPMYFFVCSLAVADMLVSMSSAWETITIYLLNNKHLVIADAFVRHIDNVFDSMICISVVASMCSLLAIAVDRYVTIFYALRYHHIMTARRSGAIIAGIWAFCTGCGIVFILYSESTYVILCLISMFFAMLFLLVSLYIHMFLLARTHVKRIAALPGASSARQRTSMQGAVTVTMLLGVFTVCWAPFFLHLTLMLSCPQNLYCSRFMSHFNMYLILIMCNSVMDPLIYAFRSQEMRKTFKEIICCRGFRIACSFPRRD

[10] = Distribution coefficient, log D at pH 7.4; format: physicochemical; details: octanol/water
[11] = Clearance in rat at 10 mg/kg, iv; format: ADME, organism-based; design: dose 10 mg/kg, route intravenous; details: in vivo
[12] = Volume of distribution in rat at 10 mg/kg, iv; format: ADME, organism-based; design: dose 10 mg/kg, route intravenous; details: in vivo, read-out: Vdss
[13] = Half life in rat at 10 mg/kg, iv; format: ADME, organism-based; design: dose 10 mg/kg, route intravenous; details: in vivo
[14] = Concentration in rat brain at 2 mg/kg, iv after […]; format: ADME, organism-based; design: dose 2 mg/kg, route intravenous; details: read-out: Drug uptake
[15] = Plasma concentration in rat at 2 mg/kg, iv after […]; format: ADME, organism-based; design: dose 2 mg/kg, route intravenous
[16] = Ratio of drug level in brain to plasma of rat at 2 mg/kg, iv after […]; format: ADME, organism-based; design: dose 2 mg/kg, route intravenous
[17] = Tmax in rat at 10 mg/kg, po; format: ADME, organism-based; design: dose 10 mg/kg, route oral; details: in vivo
[18] = Cmax in rat at 10 mg/kg, po; format: ADME, organism-based; design: dose 10 mg/kg, route oral; details: in vivo
[19] = AUC in rat at 10 mg/kg, po; format: ADME, organism-based; design: dose 10 mg/kg, route oral; details: plasma
[20] = Intrinsic clearance in human liver microsomes; format: ADME, Microsome
[21] = Oral bioavailability in rat at 10 mg/kg, po; format: ADME, organism-based; details: in vivo
[22] = biological target: T1, Melanocortin receptor 4; remark: listed apart in the source
Description: as §1

T1 sequence (P32245 whole entry): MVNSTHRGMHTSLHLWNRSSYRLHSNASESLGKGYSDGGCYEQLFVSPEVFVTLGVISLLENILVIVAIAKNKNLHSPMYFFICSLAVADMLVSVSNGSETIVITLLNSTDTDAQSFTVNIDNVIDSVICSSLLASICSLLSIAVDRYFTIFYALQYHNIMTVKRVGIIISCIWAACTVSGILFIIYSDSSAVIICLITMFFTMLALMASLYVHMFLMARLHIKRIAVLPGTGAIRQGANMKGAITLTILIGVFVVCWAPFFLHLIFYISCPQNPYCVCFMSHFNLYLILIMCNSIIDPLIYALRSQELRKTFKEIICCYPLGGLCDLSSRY

With `NCC(=O)N[C@H](Cc1ccc(Cl)cc1)C(=O)N1CCN(c2ccccc2CNCCc2cccs2)CC1` the EC50 [1] was 580 nM (agonist).
With `NCc1ccccc1N1CCN(C(=O)[C@@H](Cc2ccc(Cl)cc2)NC(=O)[C@H]2Cc3ccccc3CN2)CC1` the inhibition [2] was 27%, the inhibition [3] was 34% and the EC50 [1] was 890 nM (agonist).
With `Cn1nnc(CC2(C3CCCCC3)CCN(C(=O)[C@@H](Cc3ccc(Cl)cc3)NC(=O)[C@H]3Cc4ccccc4CN3)CC2)n1` the Ki [4] was 1.2 nM (antagonist).
For `CS(=O)(=O)N1CC2(CCN(C(=O)[C@@H](Cc3ccccc3)NC(=O)[C@@H](N)Cc3c[nH]cn3)CC2)c2ccccc21`, the Activity [5] was “inactive”.
With `NCCC(=O)N[C@H](Cc1ccc(Cl)cc1Cl)C(=O)N1CCN(c2ccccc2CNCCc2cccs2)CC1` the Kb [6] was 12.6 nM (antagonist), the Ki [7] was 4200 nM (antagonist) and the Ki [8] was 640 nM (antagonist). The Ki [9] was 280 nM (antagonist), the logD [10] was 1.1 and the clearance [11] was 24 mL/min/kg. The Vd [12] was 9.5 L/kg, the half-life [13] was 4.6 h and the concentration at […] [14] was 75 ng/g. For the same compound, the concentration at […] [15] was 71 ng/mL, the Kp at […] [16] was 1 and the Tmax [17] was 0.5 h. For the same compound, the Cmax [18] was 18 ng/mL, the AUC [19] was 51 ng·h/mL and the CLint scaled [20] was 23 mL/min/kg. The bioavailability [21] was 1% and the Ki [22] was 1.8 nM (antagonist).
For `NCCC(=O)N[C@H](Cc1ccc(Cl)cc1)C(=O)N1CCN(c2ccccc2CNCCc2cccs2)CC1`, the Ki [8] was 1400 nM (antagonist).
